Results: patent US12268739B2, “Use of toll-like receptor 2 (TLR-2) agonist for modulating human immune response” (Children's Medical Center Corporation, priority 2018, dated 2025)
Entries after “also recorded” stand apart in the source; their conditions may differ.

Tests used:
THP1-NF-κB cells = assay: THP1-NF-κB cell stimulation for 24 hours, secreted luciferase luminescence; format: cell-based, human
Experimental: THP-1 Cell Line and Culture Conditions. The THP1-Lucia™ cell line was obtained from Invivogen (San Diego, CA). THP1-Lucia cells, which are human monocytic cells derived from the blood of a child with leukemia, contain an NF-kB-inducible Luc reporter construct. This allows NF-kB activation to be measured by quantifying the luminescence from the secreted luciferase enzyme. THP1-Lucia cells were cultured in RPMI 1640 supplemented with 10% non-heat inactivated fetal bovine serum (FBS), 10 mM HEPES, 1.0 mM sodium pyruvate, 50 ug/ml Pen-Strep, and 100 ug/mL Normocin™. Once cultured, the cells were stored in a 37° C. incubator with 5% CO2 and a humidified atmosphere. Cells were passaged every 2-3 days and not allowed to exceed a concentration of 2.0×10^6 cells/ml media.
PBMCs were isolated from blood using a Ficoll density gradient. PBMCs either used fresh or were stored at 5×10^7 cells per vial in 1 mL RPMI containing 20% autologous plasma and 10% DMSO at −80° C. until use. Stimulation plates were prepared by transferring 0.66 μl of DMSO-dissolved compounds (30 or 7.5 mM) to each well of a round bottom 96-well plate. PBMCs isolated from human adult donors or THP1-NF-κB cells were resuspended at a concentration of 10^5 cells/200 μl of RPMI supplemented with 10% of platelet-poor plasma or THP1 culture medium, respectively. 200 μl of the cell suspension were transferred to each well resulting in a final compound concentration of 100 or 25 μM. After 24 hours of incubation (37° C., 5% CO2), plates were spun down (500×g, room temperature, 5 minutes) and supernatants were harvested for further analysis.

human TLR2 [1] = target: T1, human TLR2 (Homo sapiens, UniProt O60603); assay: HEK-Blue human TLR cell screening (NF-κB SEAP reporter); format: cell-based; details: compounds at 10 μM, fold change over negative controls; listed as 080
T1 construct: expressed in transfected cells; host or cells: HEK-Blue (human embryonic kidney) cells with an NF-kB-inducible SEAP reporter
Experimental: HEK cell screening. Human embryonic kidney (HEK)-Blue cell lines expressing human TLRs (hTLRs) and a secreted embryonic alkaline phosphatase (SEAP) reporter under the control of an NF-κB-inducible promoter were cultured in 96-well plates (50,000-75,000 cells/200 μl/well) and stimulated with the indicated compounds at 10 µM or positive controls. The media added to the wells is designed for detection of NF-κB-induced SEAP expression. After 16-24 hours of incubation optical density (OD) was read at 650 nm on a Molecular Devices SpectraMax 340PC absorbance detector. Positive controls employed in this assay were: heat-killed Listeria monocytogenes (1×10^8 cells/ml) for hTLR2, Poly (I:C) HMW (1 μg/ml) for hTLR3, ? E. coli K12 LPS (100 ng/ml) for hTLR4, S. typhimurium flagellin (100 ng/ml) for hTLR5, CL307 (1 μg/ml) for hTLR7, CL075 (1 μg/ml) for hTLR8 and CpG ODN 2006 (1 μg/ml) for hTLR9.

C57BL/6 mice = assay: Mouse immunization with rHA, anti-rHA IgG titers by ELISA; format: in vivo; details: adult C57BL/6 mice, rHA formulated with compound (100 nmol) i.m., prime Day 0, boost Day 28, versus rHA alone; listed as 080
Experimental: C57BL/6 mice were obtained from Charles River Laboratories and housed in specific pathogen-free conditions in the animal research facilities at Boston Children's Hospital.
For immunization experiments, adult mice were immunized intramuscularly (i.m.) in the right posterior thigh with 50 μl of vaccine containing 0.33 μg of each of the following recombinant influenza virus hemagglutinins (rHA): A/Michigan/45/2015 (H1N1), A/Hong Kong/4801/2014 (H3N2), and B/Brisbane/60/2008, contained in the 2016-2017 formulation of the FluBlok vaccine (Protein Sciences Corp.). Mice were immunized with a prime-boost schedule (two injections four weeks apart). Vaccine in all experimental groups was formulated with 10% (v/v) DMSO (except for the groups immunized with the small molecules since they were dissolved in DMSO) and 5% (v/v) Tween-80. As indicated for specific experimental groups, vaccine was also formulated with Aluminium hydroxide (100 μg) or compound 080 (100 nmol, final DMSO concentration 10%). Serum was collected 28 days post-prime (pre-boost blood sample) and 14 days post-boost for antibody detection. rHA-specific IgG were quantified by ELISA. […] The optical density was read at 450 nm Versamax microplate reader with SoftMax Pro Version 5 (both from Molecular Devices) and endpoint titers were calculated using as cutoff three times the optical density of the background.

human TLR2 [2] = target: T1, human TLR2; assay: HEK293 assay for human TLR2 selectivity (NF-κB/SEAP); format: cell-based; details: 18-24 hours stimulation, titratable
Experimental: HEK293 assay for human TLR2 and TLR8 selectivity: Human embryonic kidney (HEK) 293 cells expressing human TLR2 or TLR8 with an NF-κB-responsive secreted embryonic alkaline phosphatase (SEAP) reporter gene were obtained from Invivogen (San Diego, CA). Cells were maintained in RPMI or DMEM with 10% heat inactivated-FBS and selection antibiotics per the manufacturer's instructions. Cells were plated at 5×10^5 cells/96-well and stimulated with indicated agonist(s) for 24 hours. Supernatants were harvested and analyzed for NF-κB/SEAP activation using the QuantiBlue kit (Invivogen). Values are expressed as fold change in OD650 over vehicle-only treated samples.

T1 sequence (O60603 21-784): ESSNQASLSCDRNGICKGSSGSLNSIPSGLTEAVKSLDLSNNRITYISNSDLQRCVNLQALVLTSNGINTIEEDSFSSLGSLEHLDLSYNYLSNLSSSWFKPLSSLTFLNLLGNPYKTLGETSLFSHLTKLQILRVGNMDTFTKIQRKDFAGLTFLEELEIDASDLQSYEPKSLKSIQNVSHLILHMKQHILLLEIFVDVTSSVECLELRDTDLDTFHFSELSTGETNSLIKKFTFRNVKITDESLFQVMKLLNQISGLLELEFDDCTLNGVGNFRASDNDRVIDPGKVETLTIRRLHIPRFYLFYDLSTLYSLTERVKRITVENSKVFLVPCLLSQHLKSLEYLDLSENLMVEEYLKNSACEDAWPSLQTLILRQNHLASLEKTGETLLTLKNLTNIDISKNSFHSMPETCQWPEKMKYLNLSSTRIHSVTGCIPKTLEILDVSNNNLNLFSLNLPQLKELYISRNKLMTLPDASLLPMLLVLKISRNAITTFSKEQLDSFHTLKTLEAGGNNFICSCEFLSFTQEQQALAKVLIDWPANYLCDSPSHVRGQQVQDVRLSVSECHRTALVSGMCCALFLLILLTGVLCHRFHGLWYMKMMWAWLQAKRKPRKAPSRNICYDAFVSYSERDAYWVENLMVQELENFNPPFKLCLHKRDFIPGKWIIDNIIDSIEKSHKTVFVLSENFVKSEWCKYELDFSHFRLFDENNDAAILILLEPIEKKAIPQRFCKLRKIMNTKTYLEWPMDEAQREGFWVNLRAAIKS

CNC(=O)c1c(NC(=O)c2ccc(S(=O)(=O)N(C)C)cc2)sc2c1CCC2 [Compound 80]
Activation of THP1 cells (THP1-NF-κB cells; 384 and 96 well assay): induced activation of THP1 cells | THP1 cells (relative luminescence units, N = 4) Comp at 25 uM (THP1-NF-κB cells; NF-κB-dependent luminescence, compound at 25 uM, 24 hours): 8280 relative luminescence units | THP1 cells (relative luminescence units, N = 4) Comp at 100 uM (THP1-NF-κB cells; NF-κB-dependent luminescence, compound at 100 uM, 24 hours): 12174 relative luminescence units | Activation of human TLR2 (NF-κB activation in TLR-expressing HEK-Blue cells) (human TLR2 [1]): activate human TLR2; also recorded: activated the human TLR2-expressing human embryonic kidney (HEK)-Blue cell line | Adjuvant activity in vivo (anti-rHA IgG titers) (C57BL/6 mice): exerts adjuvant activity in vivo; also recorded: higher antibody titers; also recorded: demonstrates in vivo adjuvanticity | TLR2 activation in HEK TLR2 cells (SEAP) (human TLR2 [2]): induced TLR2 specific activation
